Source: US9790211B2, “5-amino-quinoline-8-carboxamide derivatives as 5-HT4 receptor agonists” (SUVEN LIFE SCIENCES LIMITED, priority 2013, dated 2017)
Where two headings read alike, the source gives them in different places.

How the values were obtained:
Male Wistar rats = test: Object recognition task model; type: in vivo; conditions: dose mg/kg: Ex 1 0.1, Ex 2 0.03, Ex 4 0.03, Ex 13 1, Ex 23 0.01, Ex 37 10, Ex 43 0.3
Procedure: The cognition enhancing properties of compounds of this invention were estimated by using this model.
Male Wistar rats (230-280 grams) were used as experimental animals. Four animals were housed in each cage. Animals were kept on 20% food deprivation before one day and given water ad libitum throughout the experiment and maintained on a 12 hours light/dark cycle. Also the rats were habituated to individual arenas for 1 hour in the absence of any objects.
One group of 12 rats received vehicle (1 mL/Kg) orally and another set of animals received compound of the formula (I) either orally or i.p., before one hour of the familiar (T1) and choice trial (T2).
The experiment was carried out in a 50×50×50 cm open field made up of acrylic. In the familiarization phase, (T1), the rats were placed individually in the open field for 3 minutes, in which two identical objects (plastic bottles, 12.5 cm height×5.5 cm diameter) covered in yellow masking tape alone (a1 and a2) were positioned in two adjacent corners, 10 cms from the walls. After 24 hours of the (T1) trial for long-term memory test, the same rats were placed in the same arena as they were placed in T1 trial. Choice phase (T2) rats were allowed to explore the open field for 3 minutes in presence of one familiar object (a3) and one novel object (b) (Amber color glass bottle, 12 cm high and 5 cm in diameter). Familiar objects presented similar textures, colors and sizes. During the T1 and T2 trial, explorations of each object (defined as sniffing, licking, chewing or having moving vibrissae whilst directing the nose towards the object at a distance of less than 1 cm) were recorded separately by stopwatch. Sitting on an object was not regarded as exploratory activity, however, it was rarely observed.
T1 is the total time spent exploring the familiar objects (a1+a2).
T2 is the total time spent exploring the familiar object and novel object (a3+b).
The object recognition test was performed as described by Behaviour Brain Research, (1988), 31, 47-59.

[1] = target: T1, recombinant human 5-HT4 receptor (Homo sapiens, UniProt Q13639); test: Determination of EC50 values for 5-HT4 receptor (CHO cells, pCRE-Luc reporter); type: cell-based; conditions: for Emax: CHO; for EC50: 4 hours incubation
T1 construct: expressed in transfected cells
T1 sequence (Q13639 whole entry): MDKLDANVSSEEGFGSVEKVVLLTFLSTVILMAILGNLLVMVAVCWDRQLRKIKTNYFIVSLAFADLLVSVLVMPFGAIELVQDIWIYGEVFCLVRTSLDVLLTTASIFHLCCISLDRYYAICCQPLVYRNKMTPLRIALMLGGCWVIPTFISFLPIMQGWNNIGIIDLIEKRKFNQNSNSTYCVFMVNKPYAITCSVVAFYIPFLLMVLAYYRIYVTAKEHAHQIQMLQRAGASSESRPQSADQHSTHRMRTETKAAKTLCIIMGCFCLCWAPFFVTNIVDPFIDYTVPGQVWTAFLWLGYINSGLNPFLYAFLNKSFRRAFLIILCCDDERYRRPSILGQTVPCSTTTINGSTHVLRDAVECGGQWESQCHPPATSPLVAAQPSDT
Procedure: Determination of EC50 Values for 5-HT4 Receptor
A stable CHO cell line expressing recombinant human 5-HT4 receptor and pCRE-Luc reporter system was used for cell-based assay. The assay offers a non-radioactive based approach to determine binding of a compound to GPCRs. In this specific assay, the level of intracellular cyclic AMP, which is modulated by activation, or inhibition of the receptor is measured. The recombinant cells harbor luciferase reporter gene under the control of cAMP response element.
The above cells were grown in 96 well clear bottom white plates in Hams F12 medium containing 10% fetal bovine serum (FBS). Prior to the addition of compounds or standard agonist, cells were serum starved overnight. Increasing concentrations of test compounds were added in OptiMEM medium to the cells. The incubation was continued at 37° C. in CO2 incubator for 4 hours. Medium was removed and cells were washed with phosphate buffered saline. The cells were lysed and luciferase activity was measured in a Luminometer. Luminescence units were plotted against the compound concentrations using Graphpad software.

Aβ1-40 = test: Effect on CSF Aβ1-40 level (ELISA); type: in vivo, Male Sprague Dawley Rat; conditions: 50.0 mg/kg p.o., positive control
Procedure: (§1) The control group of male rats received a vehicle (reagent grade water) per orally by gavage at a dose volume of 10 mL/kg. The treated groups (6 rat per group) received a single dose of test compound (different doses) or DAPT (50.0 mg/kg). Two hour post dose of vehicle or test compounds, rats were anesthetized with isoflurane and CSF was collected from Cisterna magna using 0.5 mL syringes by utilizing stereotaxic frame. The CSF samples were frozen in liquid nitrogen and stored at −80° C. until ELISA was performed.
(§2) • 1. CSF samples were thawed to RT and diluted with Tris Buffer Saline containing protease inhibitors at 1:10 ratio 115:150 μL (15 μL CSI+135 μL TBS. • 2. To this diluted CSF samples 0.15 mL of EIA buffer (1:1 ratio) was added. These diluted samples were subjected for Aβ1-40 level measurement by ELISA. Measurement of Aβ1-40 by ELISA Kit:
To investigate the role of an acute treatment of test compound on Aβ1-40 levels, expression of this protein in CSF was measured in treated and untreated rat by ELISA assay. The entire procedure was followed as per ELISA kit manual (Mouse/Rat Amyloid-Aβ1-40 ELISA, Cat No: 27721, IBL International, Hamburg, Germany).
(§3) Statistical analysis was performed using the Graph Pad Prism (Version 4). Data are Mean±SD of Aβ1-40 levels expressed as percentage of control values (rat which received regent grade water). Values were compared between the different groups by using unpaired t test. The significance level was set at *p<0.05; **p<0.01; ***p<0.001.

Aβ1-42 = test: Effect on CSF Aβ1-42 level (ELISA); type: in vivo, Male Sprague Dawley Rat; conditions: 50.0 mg/kg p.o., positive control
Procedure: as §1, with “by puncturing” for “from”, “frame.” for “frame. The”
as §2, with “[15:150” for “115:150”, “CSF+ 135” for “CSI+135”, “TBS],” for “TBS.”, “Aβ1-42” for “Aβ1-40”
To investigate the role of an acute treatment of test compound on Aβ1-42 levels, expression of this protein was measured in CSF of treated and untreated rat by ELISA assay. The entire procedure was followed as described in ELISA kit manual (Mouse/Rat […], Cat No: 27720, IBL International, Hamburg, Germany).
as §3, with “analyses were” for “analysis was”, “Aβ1-42” for “Aβ1-40”, “by” for “by using”

[2] = CHO cells, human 5-HT4 receptor, luciferase reporter
[3] = CHO cells, human 5-HT4 receptor, luciferase reporter, read-out: Emax

`Nc1c(Cl)cc(C(=O)NCC2CCN(CC3CCOC3)CC2)c2ncccc12.O=C(O)C(O)C(O)C(=O)O` (racemic) [Example 4, (R,S) 5-Amino-6-chloro-N-{[1-(tetrahydro-3-furanylmethyl)-4-piperidinyl]methyl} quinoline-8-carboxamide L(+)-tartarate] was tested, and the “Exploration time mean ± S.E.M, Familiar object” value (Male Wistar rats; choice trial T2, p.o.) was 6.96 ± 1.02 s, the “Exploration time mean ± S.E.M, Novel object” value (Male Wistar rats; choice trial T2, p.o.) was 12.37 ± 1.22 s and the Inference (Male Wistar rats; p.o.) was “Active”. The Emax [1] was 56% and the EC50 [1, 2] was 0.05 nM.

`CC(C)(O)CN1CCC(CNC(=O)c2cc(F)c(N)c3cccnc23)CC1` [Example 41, 5-Amino-6-fluoro-N-{[1-(2-hydroxy-2-methylpropyl)-4-piperidinyl]methyl}quinoline-8-carboxamide L(+)-tartarate] was tested, and the Emax [1] was 64% and the EC50 [1, 2] was 0.2 nM.

For `Nc1c(Cl)cc(C(=O)NCC2CCN(CC3CCOCC3)C2)c2ncccc12` (stereo not drawn) [Example 12, 5-Amino-6-chloro-N-{[1-(tetrahydro-2H-pyran-4-ylmethyl)-3-pyrrolidinyl]methyl} quinoline-8-carboxamide L(+)-tartarate], the Emax [1] was 83% and the EC50 [1, 2] was 0.2 nM.

`CC(C)(O)CN1CCC(F)(CNC(=O)c2cc(Cl)c(N)c3cccnc23)CC1` [Example 36, 5-Amino-6-chloro-N-{[4-fluoro-1-(2-hydroxy-2-methylpropyl)-4-piperidinyl]methyl} quinoline-8-carboxamide] gave an EC50 [1, 2] of 2.3 nM and an Emax [1, 3] of 74%.

For `Nc1c(Cl)cc(C(=O)NCC2(F)CCN(CC3CCOCC3)CC2)c2ncccc12` [Example 20, 5-Amino-6-chloro-N-{[4-fluoro-1-(tetrahydro-2H-pyran-4-ylmethyl)-4-piperidinyl]methyl}quinoline-8-carboxamide L(+)-tartarate], the Emax [1] was 58% and the EC50 [1, 2] was 1.1 nM.

Work on `CC(C)CN1CC2C(CNC(=O)c3cc(Cl)c(N)c4cccnc34)C2C1` (stereo not drawn) [Example 8, 5-Amino-6-chloro-N-{[3-isobutyl-3-azabicyclo[3.1.0]hex-6-yl]methyl}quinoline-8-carboxamide L(+)-tartarate] yielded an Emax [1] of 87% and an EC50 [1, 2] of 0.7 nM.

`CC(C)(O)CN1CCC(F)(CNC(=O)c2cc(F)c(N)c3cccnc23)CC1` [Example 42, 5-Amino-6-fluoro-N-{[4-fluoro-1-(2-hydroxy-2-methylpropyl)-4-piperidinyl]methyl} quinoline-8-carboxamide] was tested, and the EC50 [1, 2] was 4 nM and the Emax [1, 3] was 74%.

For `C[C@H](NC(=O)Cc1cc(F)cc(F)c1)C(=O)N[C@H](C(=O)OC(C)(C)C)c1ccccc1` [DAPT, reference compound], the “level of Aβ1-40 in rat CSF (in words)” value (Aβ1-40) was “significantly decreased” and the “levels of Aβ1-42 in rat CSF (in words)” value (Aβ1-42) was “significantly decreased”.

Compound `Nc1c(Cl)cc(C(=O)NCC2C3CN(CC4CCOC4)CC23)c2ncccc12` (stereo not drawn) [Example 7, 5-Amino-6-chloro-N-{[3-(tetrahydro-3-furanylmethyl)-3-azabicyclo[3.1.0]hex-6-yl]methyl}quinoline-8-carboxamide] has an EC50 [1, 2] of 0.57 nM and an Emax [1, 3] of 71%.
